Literature values in US9044505B2, “Multimeric biotinidase resistant multimodality probes” (priority 2012, dated 2015).

Tested on: (strept)avidin
Conditions: (strept)avidin-biotin interaction

O=C(O)CCCC[C@@H]1SC[C@@H]2NC(=O)N[C@@H]21 [biotin]
Ka: 10^15 M
